# Reference: patent publication US5041567A, “Antibacterial monic acid derivatives” (Beecham Group plc, priority 1982, dated 1991)
# Like-named read-outs stand apart in the source and are kept apart here.
# Key:
# M. suipneumoniae UCD 1 = assay: MIC against mycoplasma in vitro; assay type: cell-based; conditions: Mesomycoplasma hyopneumoniae, UCD1, 144 h
# [1] = tested on: Strep. pyogenes R80/421-A; assay: MIC against human bacteria in vitro; assay type: cell-based; conditions: Streptococcus pyogenes; Strep. pyogenes R80/421-A; 5% chocolated horse blood agar, 18 hours; read-out: MIC
# [2] = tested on: Haemophilus influenzae Wy21; assay: MIC against human bacteria in vitro; assay type: cell-based
# P. mirabilis 889 = assay: MIC against human bacteria in vitro; assay type: cell-based
# Staph. aureus Russell = assay: MIC against human bacteria in vitro; assay type: cell-based; conditions: Staphylococcus aureus
# [3] = tested on: Neisseria catarrhalis 1502; assay: MIC against human bacteria in vitro; assay type: cell-based; conditions: Neisseria catarrhalis 1502; 5% chocolated horse blood agar, 18 hours; read-out: MIC
# Strep. pneumoniae CN33 = assay: MIC against human bacteria in vitro; assay type: cell-based; conditions: Streptococcus pneumoniae; Strep. pneumoniae CN33; 5% chocolated horse blood agar, 18 hours; read-out: MIC
# Staph. aureus Oxford = assay: MIC against human bacteria in vitro; assay type: cell-based; conditions: Staphylococcus aureus
# Past. multocida PA1 = assay: MIC against veterinary bacteria in vitro; conditions: Pasteurella multocida, PA1, 18 h
# Experimental: (§1) The activity of the compounds of the Examples against various veterinarily important bacteria, was assayed in vitro using two-fold serial dilutions in Diagnostic Sensitivity Test Agar inoculated with 10^4 organisms.
# Strep. agalactiae 2788-B = assay: MIC against human bacteria in vitro; assay type: cell-based; conditions: Streptococcus agalactiae; Strep. agalactiae 2788-B; 5% chocolated horse blood agar, 18 hours; read-out: MIC
# Strep. agalactiae SPA1 = assay: MIC against veterinary bacteria in vitro; conditions: Streptococcus agalactiae, SPA1, 18 h
# Experimental: as §1
# E. coli E1 = assay: MIC against veterinary bacteria in vitro; conditions: Escherichia coli, E1, 18 h
# Experimental: as §1
# Staph. aureus W2827 = assay: MIC against human bacteria in vitro; assay type: cell-based; conditions: Staphylococcus aureus
# M. suipneumoniae NB12 = assay: MIC against mycoplasma in vitro; assay type: cell-based; conditions: Mesomycoplasma hyopneumoniae
# [4] = tested on: Strep. suis (group D) SPS11; assay: MIC against veterinary bacteria in vitro; conditions: Streptococcus suis, 18 h
# Experimental: as §1
# M. gallisepticum S6 = assay: MIC against mycoplasma in vitro; assay type: cell-based; conditions: Mycoplasmoides gallisepticum
# [5] = tested on: Ps. aeruginosa NCTC 10662; assay: MIC against human bacteria in vitro; assay type: cell-based; conditions: Pseudomonas aeruginosa
# S. dublin S7 = assay: MIC against veterinary bacteria in vitro; conditions: Salmonella enterica, S7, 18 h
# Experimental: as §1
# [6] = tested on: M. suipneumoniae ATCC 25095; assay: MIC against mycoplasma in vitro; assay type: cell-based; conditions: Mesomycoplasma hyopneumoniae, ATCC25095, 144 h
# [7] = tested on: Corynebacterium xerosis 9755; assay: MIC against human bacteria in vitro; assay type: cell-based
# M. dispar NCTC 10125 = assay: MIC against mycoplasma in vitro; assay type: cell-based; conditions: 144 h
# [8] = tested on: M. suipneumoniae NCTC 10110; assay: MIC against mycoplasma in vitro; assay type: cell-based; conditions: Mesomycoplasma hyopneumoniae, NCTC10110, 144 h
# M. suipneumoniae JF 435 = assay: MIC against mycoplasma in vitro; assay type: cell-based; conditions: Mesomycoplasma hyopneumoniae, JF435, 144 h
# [9] = tested on: Staph. aureus 152 (pen. sens); assay: MIC against veterinary bacteria in vitro; conditions: Staphylococcus aureus, 18 h
# Experimental: as §1
# [10] = tested on: M. bovigenitalium ATCC 14173; assay: MIC against mycoplasma in vitro; assay type: cell-based; conditions: 144 h
# Sarcina lutea 8340 = assay: MIC against human bacteria in vitro; assay type: cell-based
# E. coli NCTC 10418 [11] = assay: MIC against human bacteria in vitro; assay type: cell-based; conditions: Escherichia coli
# Past. multocida PA2 = assay: MIC against veterinary bacteria in vitro; conditions: Pasteurella multocida, PA2, 18 h
# Experimental: as §1
# M. hyorhinis ATCC 25021 = assay: MIC against mycoplasma in vitro; assay type: cell-based; conditions: Mesomycoplasma hyorhinis, ATCC25021, 144 h; M. hyorhinis ATCC 25021; 6 days, 37° C.; read-out: MIC
# M. suipneumoniae MS 16 = assay: MIC against mycoplasma in vitro; assay type: cell-based; conditions: Mesomycoplasma hyopneumoniae, MS16, 144 h
# M. suipneumoniae Str. 11 = assay: MIC against mycoplasma in vitro; assay type: cell-based; conditions: Mesomycoplasma hyopneumoniae
# Past. haemolytica PA5 = assay: MIC against veterinary bacteria in vitro; conditions: Mannheimia haemolytica, PA5, 18 h
# Experimental: as §1
# M. suipneumoniae TAM 6N = assay: MIC against mycoplasma in vitro; assay type: cell-based; conditions: Mesomycoplasma hyopneumoniae, TAM6N, 144 h
# E. coli NCTC 10418 [12] = assay: MIC against veterinary bacteria in vitro; conditions: Escherichia coli, NCTC10418, 18 h
# Experimental: as §1
# [13] = tested on: M. suipneumoniae PW/C/210; assay: MIC against mycoplasma in vitro; assay type: cell-based; conditions: Mesomycoplasma hyopneumoniae, 144 h
# [14] = M. suipneumoniae UCD 1, 6 days, 37° C., read-out: MIC
# [15] = Haemophilus influenzae Wy21, 5% chocolated horse blood agar, 18 hours, read-out: MIC
# [16] = Staph. aureus Russell, 5% chocolated horse blood agar, 18 hours, read-out: MIC
# [17] = Staph. aureus Oxford, 5% chocolated horse blood agar, 18 hours, read-out: MIC
# [18] = Staph. aureus W2827, 5% chocolated horse blood agar, 18 hours, read-out: MIC
# [19] = 144 h, M. suipneumoniae NB12, Friis broth, 0.9% agarose, 6 days, 37° C., read-out: MIC
# [20] = 144 h, M. gallisepticum S6, 6 days, 37° C., read-out: MIC
# [21] = NCTC10662, Ps. aeruginosa NCTC 10662, 5% chocolated horse blood agar, 18 hours, read-out: MIC
# [22] = M. suipneumoniae ATCC 25095, 6 days, 37° C., read-out: MIC
# [23] = Corynebacterium xerosis 9755, 5% chocolated horse blood agar, 18 hours, read-out: MIC
# [24] = M. dispar NCTC 10125, 6 days, 37° C., read-out: MIC
# [25] = M. suipneumoniae NCTC 10110, 6 days, 37° C., read-out: MIC
# [26] = M. suipneumoniae JF 435, 6 days, 37° C., read-out: MIC
# [27] = M. bovigenitalium ATCC 14173, 6 days, 37° C., read-out: MIC
# [28] = Micrococcus luteus, Sarcina lutea 8340, 5% chocolated horse blood agar, 18 hours, read-out: MIC
# [29] = NCTC10418, E. coli NCTC 10418, agar with 5% chocolated horse blood, 18 hours, 37° C., read-out: MIC
# [30] = M. suipneumoniae MS 16, 6 days, 37° C., read-out: MIC
# [31] = 144 h, M. suipneumoniae Str. 11, 6 days, 37° C., read-out: MIC
# [32] = M. suipneumoniae TAM 6N, 6 days, 37° C., read-out: MIC
# [33] = M. suipneumoniae PW/C/210, 6 days, 37° C., read-out: MIC
SMILES,MIC [1] [µg/mL],"MIC (P. mirabilis 889; Proteus mirabilis, 889, 18 h) [µg/mL]",MIC [3] [µg/mL],MIC (Strep. pneumoniae CN33) [µg/mL],MIC (Past. multocida PA1) [µg/mL],MIC (Strep. agalactiae 2788-B) [µg/mL],MIC (Strep. agalactiae SPA1) [µg/mL],MIC (E. coli E1) [µg/mL],MIC [4] [µg/mL],MIC (S. dublin S7) [µg/mL],MIC [9] [µg/mL],MIC (Past. multocida PA2) [µg/mL],MIC (M. hyorhinis ATCC 25021) [µg/mL],MIC (Past. haemolytica PA5) [µg/mL],MIC (E. coli NCTC 10418 [12]) [µg/mL],MIC (M. suipneumoniae UCD 1; [14]) [µg/mL],"MIC [2, 15] [µg/mL]",MIC (Staph. aureus Russell; [16]) [µg/mL],MIC (Staph. aureus Oxford; [17]) [µg/mL],MIC (Staph. aureus W2827; [18]) [µg/mL],also measured
"CSc1ccc(-c2cnc(/C=C(\C)C[C@@H]3OC[C@H](C[C@@H]4O[C@H]4[C@@H](C)[C@H](C)O)[C@@H](O)[C@H]3O)o2)cc1 [Example 9, 5-p-methylthiophenyl-2-(1-normon-2-yl)oxazole A]",10,> 100,10,10,20,10,10,> 80,10,> 80,0.625,5,0.5,40,> 80,–,–,–,–,–,"MIC (M. suipneumoniae UCD 1): 0.5 µg/mL; MIC ([2]; Haemophilus influenzae, WY21, 18 h): 50 µg/mL; MIC (Staph. aureus Russell; 18 h): 5 µg/mL; MIC (Staph. aureus Oxford; 18 h): 2.5 µg/mL; MIC (Staph. aureus W2827; W2827, 18 h): 5 µg/mL; MIC (M. suipneumoniae NB12; NB12, 144 h): 0.5 µg/mL; MIC (M. gallisepticum S6; S6, 144 h): 1 µg/mL; MIC ([5]; NCTC10662, 18 h): > 100 µg/mL; MIC [6]: 0.5 µg/mL; MIC ([7]; Corynebacterium xerosis, 9755, 18 h): > 100 µg/mL; MIC (M. dispar NCTC 10125): 0.1 µg/mL; MIC [8]: 0.5 µg/mL; MIC (M. suipneumoniae JF 435): 0.5 µg/mL; MIC [10]: 0.1 µg/mL; MIC (Sarcina lutea 8340; Micrococcus luteus, 8340, 18 h): > 100 µg/mL; MIC (E. coli NCTC 10418 [11]; NCTC10418, 18 h): > 100 µg/mL; MIC (M. suipneumoniae MS 16): 0.5 µg/mL; MIC (M. suipneumoniae Str. 11; STR.11, 144 h): 0.5 µg/mL; MIC (M. suipneumoniae TAM 6N): 0.5 µg/mL; MIC [13]: 0.5 µg/mL"
"C/C(=C\c1ncc(CCCCCCCC(=O)O)o1)C[C@@H]1OC[C@H](C[C@@H]2O[C@H]2[C@@H](C)[C@H](C)O)[C@@H](O)[C@H]1O [Example 12, Sodium 8-[2-(1-normon-2-yl)-5-oxazolyl]-octanoate A]",16,–,16,16,2.5,16,20,> 40,20,> 40,0.625,0.156,5,40,> 40,> 10,2,8,8,8,"MIC (P. mirabilis 889; Proteus mirabilis, P. mirabilis 889, 5% chocolated horse blood agar, 18 hours, read-out: MIC): > 16 µg/mL; MIC (M. suipneumoniae NB12; [19]): > 10 µg/mL; MIC (M. gallisepticum S6; [20]): > 10 µg/mL; MIC [5, 21]: > 16 µg/mL; MIC [6, 22]: 10 µg/mL; MIC [7, 23]: > 16 µg/mL; MIC (M. dispar NCTC 10125; [24]): 5 µg/mL; MIC [8, 25]: > 10 µg/mL; MIC (M. suipneumoniae JF 435; [26]): > 10 µg/mL; MIC [10, 27]: 1 µg/mL; MIC (Sarcina lutea 8340; [28]): > 16 µg/mL; MIC (E. coli NCTC 10418 [11]; [29]): > 16 µg/mL; MIC (M. suipneumoniae MS 16; [30]): 10 µg/mL; MIC (M. suipneumoniae Str. 11; [31]): 10 µg/mL; MIC (M. suipneumoniae TAM 6N; [32]): > 10 µg/mL; MIC [13, 33]: 10 µg/mL"
"C/C(=C\c1ncc(-c2ccc([N+](=O)[O-])cc2)o1)C[C@@H]1OC[C@H](C[C@@H]2O[C@H]2[C@@H](C)[C@H](C)O)[C@@H](O)[C@H]1O [Example 3, 5-p-nitro-phenyl-2-(1-normon-2-yl)-oxazole A]",0.5,50,0.5,0.5,5,0.5,1.25,> 80,2.5,> 80,0.312,0.625,0.05,10,> 80,0.25,0.1,5,0.2,1,"MIC (M. suipneumoniae NB12; [19]): 0.1 µg/mL; MIC (M. gallisepticum S6; [20]): 0.5 µg/mL; MIC [5, 21]: > 100 µg/mL; MIC [6, 22]: 0.1 µg/mL; MIC [7, 23]: > 100 µg/mL; MIC (M. dispar NCTC 10125; [24]): 0.05 µg/mL; MIC [8, 25]: 0.25 µg/mL; MIC (M. suipneumoniae JF 435; [26]): 0.25 µg/mL; MIC [10, 27]: 0.05 µg/mL; MIC (Sarcina lutea 8340; [28]): > 100 µg/mL; MIC (E. coli NCTC 10418 [11]; [29]): > 100 µg/mL; MIC (M. suipneumoniae MS 16; [30]): 0.05 µg/mL; MIC (M. suipneumoniae Str. 11; [31]): 0.1 µg/mL; MIC (M. suipneumoniae TAM 6N; [32]): 0.25 µg/mL; MIC [13, 33]: 0.1 µg/mL"
